# Experimental data published in the supplement of paper PMC13380429.
# ± gives the standard deviation of the averaged measurements.
# Experiments:
# Conditions in all cases: 72 h
# U2OS [1] = assay: cell viability relative to DMSO; higher = less toxic
# Calu-3 [2] = assay: as above
# Caco-2 [3] = assay: as above
# Vero E6 [4] = assay: as above
# HepG2 [5] = assay: as above
# U2OS [6] = assay: relative viability EC50 (midpoint between 100% and the lowest measured viability); higher = less toxic
# Calu-3 [7] = assay: as above
# Caco-2 [8] = assay: as above
# Vero E6 [9] = assay: as above
# HepG2 [10] = assay: as above
# U2OS [11] = assay: drug sensitivity score (DSS) for viability; higher = more toxic; extreme values may be limits of the assay
# Calu-3 [12] = assay: as above
# Caco-2 [13] = assay: as above
# Vero E6 [14] = assay: as above
# HepG2 [15] = assay: as above
Compound,cell viability (U2OS [1]; 1 nM) [%],cell viability (U2OS [1]; 10 nM) [%],cell viability (U2OS [1]; 100 nM) [%],cell viability (U2OS [1]; 1000 nM) [%],cell viability (U2OS [1]; 10000 nM) [%],cell viability (Calu-3 [2]; 1 nM) [%],cell viability (Calu-3 [2]; 10 nM) [%],cell viability (Calu-3 [2]; 100 nM) [%],cell viability (Calu-3 [2]; 1000 nM) [%],cell viability (Calu-3 [2]; 10000 nM) [%],cell viability (Caco-2 [3]; 1 nM) [%],cell viability (Caco-2 [3]; 10 nM) [%],cell viability (Caco-2 [3]; 100 nM) [%],cell viability (Caco-2 [3]; 1000 nM) [%],cell viability (Caco-2 [3]; 10000 nM) [%],cell viability (Vero E6 [4]; 1 nM) [%],cell viability (Vero E6 [4]; 10 nM) [%],cell viability (Vero E6 [4]; 100 nM) [%],cell viability (Vero E6 [4]; 1000 nM) [%],cell viability (Vero E6 [4]; 10000 nM) [%],cell viability (HepG2 [5]; 1 nM) [%],cell viability (HepG2 [5]; 10 nM) [%],cell viability (HepG2 [5]; 100 nM) [%],cell viability (HepG2 [5]; 1000 nM) [%],cell viability (HepG2 [5]; 10000 nM) [%],relative viability EC50 (U2OS [6]) [µM],relative viability EC50 (Calu-3 [7]) [µM],relative viability EC50 (Caco-2 [8]) [µM],relative viability EC50 (Vero E6 [9]) [µM],relative viability EC50 (HepG2 [10]) [µM],drug sensitivity score (U2OS [11]),drug sensitivity score (Calu-3 [12]),drug sensitivity score (Caco-2 [13]),drug sensitivity score (Vero E6 [14]),drug sensitivity score (HepG2 [15])
CCOC(=O)/C=C(C)/C=C/C=C(C)/C=C/c1c(C)cc(OC)c(C)c1C [etretinate],96,101,98.1,100,99.5,101,101,97.5,106,109,100,107,92.2,111,95.3,97.9,96.6,93,98.5,108,94.2,99.4,103,102,102,> 10,> 10,> 10,> 10,> 10,0,0,0,0,0
O=C(NC(Cc1cc(=O)[nH]c2ccccc12)C(=O)O)c1ccc(Cl)cc1 (stereo not given) [rebamipide],90.5,96.7,93.9,103,110,99.2,97.5,92.7,99.7,106,92.6,97.7,89.9,100,99.3,101,96,97.6,96.8,110,107,89.4,108,105,104,> 10,> 10,> 10,> 10,> 10,0,0,0,0,0
CCN(CC)C(C)C(=O)c1ccccc1 (stereo not given) [amfepramone],100,95.3,98.1,95.2,98.6,109,85.5,93.6,93.7,103,117,95.9,103,102,128,92.3,102,106,106,86.8,106,102,100,96.6,101,> 10,> 10,> 10,> 10,> 10,0,0,0,0,0
Cc1onc(O)c1C[C@@H](N)C(=O)O (racemic) [AMPA-(RS)],97.1 ± 1.8,95.6 ± 1.3,98.2 ± 2.3,98.5 ± 3.6,102 ± 2.5,95.7 ± 6.4,98.5 ± 1.5,95.8 ± 5,99.1 ± 3.5,106 ± 12,99.7 ± 0.42,89.15 ± 0.071,98.2 ± 3.9,93.2 ± 3.2,93 ± 3.8,99 ± 3.2,98.9 ± 1.1,93.8 ± 2.1,97.2 ± 1.3,104 ± 0.78,92.3 ± 9.6,102 ± 13,96.5 ± 5.2,101 ± 5.9,108 ± 5.2,> 10,> 10,> 10,> 10,> 10,0,0,0,0,0
Brc1ccc(NC2C3CC4CC(C3)CC2C4)cc1 (stereo not given) [bromantan],102,99.6,101,96.9,101,89.6,90.6,98.3,102,87.9,104,95.9,104,99.9,92.8,101,100,99.5,108,98.8,105,100,92,106,94.3,> 10,> 10,> 10,> 10,> 10,0,0,0,0,0
C(#CCN1CCCC1)CN1CCCC1 [tremorine],94.9,101,91.5,95.3,92.7,109,104,96.3,88.3,103,91.8,108,87.3,97.7,83.1,103,108,98.5,104,92,88.5,103,100,97.8,93.6,> 10,> 10,> 10,> 10,> 10,0,0,0.3,0,0
CC1=C(C(=O)O)N2C(=O)[C@@H](NC(=O)[C@H](N)c3ccccc3)[C@H]2SC1 [cephalexin],99.2,91.5,99.1,94.7,104,94.8,101,88.4,112,94.9,95.2,94.6,100,98,115,95.8,100,96.7,101,103,101,97.1,92.7,95.2,105,> 10,> 10,> 10,> 10,> 10,0,0,0,0,0
OCCN1CCN(CCCN2c3ccccc3C=Cc3ccccc32)CC1 [opipramol],97.6,95.6,101,103,97,100,93.3,99.7,100,98,89.8,102,88.6,100,76.6,107,99.8,104,98.5,83.9,107,104,98,91.4,92.1,> 10,> 10,> 10,> 10,> 10,0,0,0.8,0.5,0
Cc1cc2c(C(C)C)c(O)c(O)c(C=O)c2c(O)c1-c1c(C)cc2c(C(C)C)c(O)c(O)c(C=O)c2c1O [gossypol],96.8,101,98.6,95.9,11.9,100,100,103,103,36.9,101,104,107,90.9,0.8,100,98.1,97.6,98.6,13.1,102,96.3,95.3,96.1,9.6,2.81,3.4,2.41,3.05,2.84,5.5,3.2,7,5,5.6
COc1ccc(-c2cc(C(F)F)nn2-c2ccc(S(N)(=O)=O)cc2)cc1F [deracoxib],91.3,90.2,93.7,88.7,107,100,93.8,104,93.3,109,99.9,93.5,98.1,98.6,102,97.3,99.7,94.2,101,98.8,96.4,112,90.5,89.7,86.5,> 10,> 10,> 10,> 10,> 10,0,0,0,0,1.5
COc1cc2c(NC3CCN(C)CC3)nc(N3CCCN(C)CC3)nc2cc1OCCOCCN(C)C [UNC0321],100,100,98.3,102,97.6,89.5,107,99,99.2,97,105,94,102,102,100,99.7,104,104,97,96.9,99.9,107,105,102,102,> 10,> 10,> 10,> 10,> 10,0,0,0,0,0
CC(CNC1CCCCC1)OC(=O)c1ccccc1 (stereo not given) [hexylcaine],103,101,99.1,103,104,104,107,95.2,103,95.5,99,88.5,98,105,102,97.3,102,96.8,93.1,105,106,102,91,88.5,102,> 10,> 10,> 10,> 10,> 10,0,0,0,0,0
CCCCC#Cc1nc(NC)c2ncn([C@@H]3O[C@H](CO)[C@@H](O)[C@H]3O)c2n1 [HEMADO],102,102,96.1,103,101,102,108,84.6,102,91.1,103,89,102,104,102,110,101,105,105,98.5,111,103,99.7,103,104,> 10,> 10,> 10,> 10,> 10,0,0,0,0,0
